Results as given in patent publication US12568967B2, “Compositions comprising pyridine carboxylate herbicides with synthetic auxin herbicides or auxin transport inhibitors” (priority 2018, dated 2026).
Read-outs that look alike come from different tables or passages of the source.

Tests used:
[1] = tested on: Brassica napus (winter rape, BRSNW); experiment: Greenhouse postemergence trial BRSNW; format: in vivo
[2] = tested on: Polygonum convolvulus (wild buckwheat, POLCO); experiment: Greenhouse postemergence trial POLCO; format: in vivo; details: for % visual injury (Obs): alone 280 g/ha
[3] = tested on: Cirsium arvense (Canadian thistle, CIRAR); experiment: Greenhouse postemergence trial CIRAR; format: in vivo
[4] = tested on: Sinapis arvensis (wild mustard, SINAR); experiment: Greenhouse postemergence trial SINAR; format: in vivo; details: SINAR
Protocol: (§1) The plants were grown for 7-36 days (d) in a greenhouse with an approximate 14-hour (h) photo-period which was maintained at about 23° C. during the day and 22° C. during the night. Nutrients and water were added on a regular basis and supplemental lighting was provided with overhead metal halide 1000-Watt lamps as necessary. The plants were employed for testing when they reached the second or third true leaf stage.
(§2) The emulsifiable concentrates also included a safener, cloquintocet-mexyl, at 120 grams active ingredient per liter (g ai/L), unless otherwise noted below.
(§3) Control plants were sprayed in the same manner with the solvent blank. All pyridine carboxylate herbicide (component a) application rates are given as “g ae/ha” and all synthetic auxin herbicide or auxin transport inhibitor (component b) application rates are given as “g ai/ha.”
(§4) The treated plants and control plants were placed in a greenhouse as described above and watered by sub-irrigation to prevent wash-off of the test compounds. After 20-22 d, the condition of the test plants as compared with that of the control plants was determined visually and scored on a scale of 0 to 100 percent where 0 corresponds to no injury and 100 corresponds to complete kill.

[5] = tested on: Kochia scoparia (kochia, KCHSC); experiment: Greenhouse postemergence trial KCHSC; format: in vivo; details: for % visual injury (Obs): alone 280 g/ha
Protocol: (§5) Seeds of the desired test plant species were planted in a 90:10% v/v (volume/volume) mixture of PRO-MIX® BX (Premier Tech Horticulture, Quakertown, PA, USA) and PROFILE® GREENS GRADE™ (Profile Products LLC, Buffalo Grove, IL, USA) planting mixture, which typically has a pH of 5.2 to 6.2 and an organic matter content of at least 50 percent, in plastic pots with a surface area of 103.2 square centimeters (cm^2). […] The plants were grown for 7-36 days (d) in a greenhouse with an approximate 14-hour (h) photo-period which was maintained at about 23° C. during the day and 22° C. during the night. Nutrients and water were added on a regular basis and supplemental lighting was provided with overhead metal halide 1000-Watt lamps as necessary. The plants were employed for testing when they reached the second or third true leaf stage.
(§6) Emulsifiable concentrates of each of each pyridine carboxylate herbicide (Compound A or Compound B) were prepared at 100 grams acid equivalent per liter (g ae/L). The emulsifiable concentrates also included a safener, cloquintocet-mexyl, at 120 grams active ingredient per liter (g ai/L), unless otherwise noted below. An aliquot of each emulsifiable concentrate was placed in a 25 mL glass vial and diluted with an aqueous mixture of 1.25% (v/v) ACTIROB® B esterified rapeseed oil (Bayer Crop Science, Research Triangle Park, NC, USA) or MSO® Concentrate with LECI-TECH® methylated soybean oil (Loveland Products, Loveland, CO, USA) to obtain concentrated stock solutions at the highest application rate for each herbicide, based upon a 12 milliliter (mL) application volume at a rate of 187 liters per hectare (L/ha). The concentrated stock solutions were further diluted with an aqueous mixture of 1.25% v/v ACTIROB® B or MSO® Concentrate with LECI-TECH® to obtain stock solutions at reduced application rates for each herbicide. Spray solutions of the herbicide combinations (Compound A or Compound B plus synthetic auxin herbicide or auxin transport inhibitor) were prepared by adding weighed amounts or aliquots of the synthetic auxin herbicide or auxin transport inhibitor to the stock solutions of Compound A or Compound B to form 12-mL spray solutions in two-way combinations.
(§7) The spray solutions were applied to the plant material with an overhead Mandel track sprayer equipped with 8002E nozzles calibrated to deliver 187 L/ha over an application area of 0.503 square meters (m^2) at a spray height of 18 inches (43 centimeters (cm)) above the average plant canopy. Control plants were sprayed in the same manner with the solvent blank. All pyridine carboxylate herbicide (component a) application rates are given as “g ae/ha” and all synthetic auxin herbicide or auxin transport inhibitor (component b) application rates are given as “g ai/ha.”
as §4

[6] = tested on: Chenopodium album L. (common lambsquarters, CHEAL); experiment: Greenhouse postemergence trial CHEAL; format: in vivo; details: for % visual injury (Obs): CHEAL, alone 280 g/ha;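 as to all read-outs here: greenhouse plants sprayed at second to third true leaf stage, injury rated by eye after 20-22 d versus solvent-blank sprayed controls, 0 = no injury, 100 = complete kill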
[7] = tested on: Amaranthus retroflexus (pigweed, AMARE); experiment: Greenhouse postemergence trial AMARE; format: in vivo; details: for % visual injury (Obs): AMARE, alone 280 g/ha;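 as to all read-outs here: Greenhouse-grown plants sprayed at second to third true leaf stage, injury rated by eye after 20-22 d versus solvent-blank sprayed controls, 0 = no injury, 100 = complete kill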
[8] = tested on: Matricaria chamomilla (wild chamomile, MATCH); experiment: Greenhouse postemergence trial MATCH; format: in vivo; details: for % visual injury (Obs): alone 280 g/ha;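 as to all read-outs here: greenhouse plants sprayed at second to third true leaf stage, injury rated by eye 20-22 d later versus solvent-blank controls on 0–100 scale, 0 no injury, 100 complete kill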
Protocol: as §1, §2, §3, §4

[9] = tested on: Stellaria media (chickweed, STEME); experiment: Greenhouse postemergence trial STEME; format: in vivo
[10] = tested on: Rumex obtusifolius (broad-leaf dock, RUMOB); experiment: Greenhouse postemergence trial RUMOB; format: in vivo
Protocol: as §5, §6, §7, §4

[11] = tested on: Abutilon theophrasti (velvetleaf, ABUTH); experiment: Greenhouse postemergence trial ABUTH; format: in vivo; details: Dichlorprop-K 280 g/ha (Table 40)
Protocol: as §5, §6, §7, §4

[12] = tested on: Glycine max (volunteer soybean, GLXMA); experiment: Greenhouse postemergence trial GLXMA; format: in vivo; details: Dichlorprop-K 280 g/ha (Table 40)
[13] = tested on: Helianthus annuus (common sunflower, HELAN); experiment: Greenhouse postemergence trial HELAN; format: in vivo; details: Dichlorprop-K 280 g/ha (Table 40)
Protocol: as §5, §6, §7, §4

[14] = tested on: Ipomoea hederacea (ivyleaf morningglory, IPOHE); experiment: Greenhouse postemergence trial IPOHE; format: in vivo; details: Dichlorprop-K 280 g/ha (Table 40)
[15] = tested on: Viola tricolor (wild pansy, VIOTR); experiment: Greenhouse postemergence trial VIOTR;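 also: greenhouse plants sprayed at second to third true leaf stage, injury rated visually after 20-22 d against solvent-blank sprayed controls, 0 meaning no injury and 100 complete kill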
[16] = tested on: Salsola kali (Russian thistle, SASKR); experiment: Greenhouse postemergence trial SASKR; format: in vivo; details: SASKR;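 also: greenhouse plants sprayed at second or third true leaf stage, injury rated by eye after 20-22 d against solvent-blank controls, 0 meaning no injury, 100 complete kill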
Protocol: as §1, §2, §3, §4

[17] = tested on: Triticum aestivum (spring wheat, TRZAS); format: in vivo; details: TRZAS
Protocol: as §5, §6, §7, §4

[18] = tested on: Hordeum vulgare (spring barley, HORVS); format: in vivo; details: HORVS
[19] = tested on: Cyanus segetum (cornflower, CENCY); experiment: Greenhouse postemergence trial CENCY; format: in vivo; details: Centaurea cyanus, post-emergence, read-out: % visual injury Obs
[20] = tested on: Viola arvensis (field violet, VIOAR); experiment: Greenhouse postemergence trial VIOAR; format: in vivo; details: Viola arvensis, post-emergence, read-out: % visual injury Obs
Protocol: as §5, §6, §7, §4

[21] = tested on: Veronica hederifolia (ivyleaf speedwell, VERHE); experiment: Greenhouse postemergence trial VERHE; format: in vivo
[22] = tested on: Papaver rhoeas (corn poppy, PAPRH); experiment: Greenhouse postemergence trial PAPRH; format: in vivo; details: Papaver rhoeas, post-emergence, read-out: % visual injury Obs
Protocol: as §5, §6, §7, §4

[23] = tested on: Veronica persica (bird's-eye speedwell, VERPE); experiment: Greenhouse postemergence trial VERPE; format: in vivo
Protocol: as §5, §6, §7, §4

[24] = tested on: Papaver rhoeas (corn poppy), herbicide-resistant (PAPRH-R); experiment: Greenhouse postemergence trial PAPRH-R; format: in vivo
[25] = tested on: Capsella bursa-pastoris (shepherd's purse, CAPBP); experiment: Greenhouse postemergence trial CAPBP; format: in vivo; details: Capsella bursa-pastoris, post-emergence, read-out: % visual injury Obs
[26] = tested on: Anthemis arvensis (field chamomile, ANTAR); experiment: Greenhouse postemergence trial ANTAR; format: in vivo; details: Anthemis arvensis, post-emergence, read-out: % visual injury Obs
[27] = tested on: Matricaria discoidea (pineapple weed, MATMT); experiment: Greenhouse postemergence trial MATMT; format: in vivo
Protocol: as §5, §6, §7, §4

[28] = tested on: Matricaria inodora (false chamomile, MATIN); experiment: Greenhouse postemergence trial MATIN; format: in vivo; details: Tripleurospermum inodorum, post-emergence, read-out: % visual injury Obs
[29] = tested on: Triticum aestivum (winter wheat, TRZAW); experiment: Greenhouse postemergence crop phytotoxicity TRZAW; format: in vivo; details: TRZAW
Protocol: as §5, §6, §7, §4

[30] = tested on: Hordeum vulgare (winter barley, HORVW); experiment: Greenhouse postemergence crop phytotoxicity HORVW; format: in vivo; details: HORVW
[31] = tested on: Brassica napus (spring rape, BRSNN); experiment: Greenhouse postemergence trial BRSNN; format: in vivo
[32] = tested on: Lamium purpureum (purple deadnettle, LAMPU); experiment: Greenhouse postemergence trial LAMPU; details: Lamium purpureum, post-emergence, read-out: % visual injury Obs
[33] = Dichlorprop-K 280 g/ha (Table 40)
[34] = c2-3 Compound A 7.5/10, c4 Florpyrauxifen-benzyl 10, c5-6 A 7.5/10 + Florpyrauxifen-benzyl 10 g/ha
[35] = Viola tricolor, post-emergence, read-out: % visual injury Obs

CC(Oc1ccc(Cl)cc1Cl)C(=O)[O-].[K+] (stereo not shown) [Dichlorprop-K]
% visual injury (Obs) ([1]; BRSNW, alone 280 g/ha): 63% | POLCO % visual injury Obs [2, 33]: 0% | % visual injury (Obs) ([2]; POLCO): 18% | % visual injury (Obs) ([3]; CIRAR, alone 280 g/ha): 15% | CIRAR % visual injury Obs [3, 33]: 63% | % visual injury (Obs) ([4]; alone 280 g/ha): 78% | KCHSC % visual injury Obs [5, 33]: 63% | % visual injury (Obs) ([5]; KCHSC): 60% | % visual injury (Obs) [6]: 70% | CHEAL % visual injury Obs [6, 33]: 60% | % visual injury (Obs) [7]: 85% | AMARE % visual injury Obs [7, 33]: 10% | % visual injury (Obs) ([8]; MATCH): 20% | STEME % visual injury Obs [9, 33]: 0% | RUMOB % visual injury Obs [10, 33]: 73% | ABUTH % visual injury Obs [11]: 40% | GLXMA % visual injury Obs [12]: 33% | HELAN % visual injury Obs [13]: 90% | IPOHE % visual injury Obs [14]: 75% | VIOTR % visual injury Obs [15, 33]: 65%

COc1c(Cl)ccc(-c2nc(C(=O)OCc3ccccc3)c(Cl)c(N)c2F)c1F [Florpyrauxifen-benzyl, florpyrauxifen-benzyl, reference compound]
plant injury at 20 g/ha ([1]; Brassica napus, post-emergence, read-out: % visual injury Obs): 40% | pest or weed control at 20 g/ha ([2]; Fallopia convolvulus, post-emergence, read-out: % visual injury Obs): 85% | pest or weed control at 20 g/ha ([3]; Cirsium arvense, post-emergence, CIRAR, Florpyrauxifen-benzyl 20 g/ha, read-out: % visual injury Obs): 70% | pest or weed control at 20 g/ha ([4]; Mutarda arvensis, post-emergence, Florpyrauxifen-benzyl 20 g/ha, read-out: % visual injury Obs): 90% | pest or weed control at 20 g/ha ([16]; Salsola kali, post-emergence, Florpyrauxifen-benzyl 20 g/ha, read-out: % visual injury Obs): 70% | pest or weed control at 20 g/ha ([5]; Bassia scoparia, post-emergence, KCHSC, Florpyrauxifen-benzyl 20 g/ha, read-out: % visual injury Obs): 65% | pest or weed control at 20 g/ha ([8]; Matricaria chamomilla, post-emergence, MATCH, Florpyrauxifen-benzyl 20 g/ha, read-out: % visual injury Obs): 35% | % visual injury Obs ([17]; Florpyrauxifen-benzyl 20 g/ha): 0% | % visual injury Obs ([18]; Florpyrauxifen-benzyl 20 g/ha): 0% | pest or weed control at 20 g/ha [19]: 100% | pest or weed control at 20 g/ha [20]: 10% | pest or weed control at 20 g/ha ([21]; Veronica hederifolia, post-emergence, read-out: % visual injury Obs): 20% | pest or weed control at 20 g/ha [22]: 70% | pest or weed control at 20 g/ha ([23]; Veronica persica, post-emergence, read-out: % visual injury Obs): 10% | pest or weed control at 20 g/ha ([24]; Papaver rhoeas, post-emergence, read-out: % visual injury Obs): 60% | pest or weed control at 20 g/ha [25]: 80% | pest or weed control at 20 g/ha ([9]; Stellaria media, post-emergence, read-out: % visual injury Obs): 100% | pest or weed control at 20 g/ha [26]: 100% | pest or weed control at 20 g/ha ([27]; Matricaria discoidea, post-emergence, read-out: % visual injury Obs): 50% | pest or weed control at 20 g/ha [28]: 50% | % visual injury Obs ([29]; Florpyrauxifen-benzyl 20 g/ha): 0% | % visual injury Obs ([30]; Florpyrauxifen-benzyl 20 g/ha): 0% | % visual injury, Obs [31, 34]: 25% | % visual injury, Obs [10, 34]: 33% | pest or weed control at 20 g/ha [32]: 97% | pest or weed control at 20 g/ha [15, 35]: 70%

O=C(O)COc1nc(Cl)c(Cl)cc1Cl [Triclopyr]
plant injury at 560 g/ha ([1]; Brassica napus, post-emergence, BRSNW, alone, 560 g/ha, read-out: % visual injury Obs): 60% | BRSNW % visual injury Obs ([1]; Triclopyr 45 g/ha (Table 39)): 10% | BRSNW % visual injury Obs ([1]; Triclopyr 60 g/ha (Table 39)): 10% | pest or weed control at 560 g/ha ([2]; Fallopia convolvulus, post-emergence, POLCO, alone, 560 g/ha, read-out: % visual injury Obs): 30% | % visual injury (Obs) ([2]; POLCO): 13% | pest or weed control at 560 g/ha ([3]; Cirsium arvense, post-emergence, CIRAR, alone, 560 g/ha, read-out: % visual injury Obs): 75% | pest or weed control at 560 g/ha ([4]; Mutarda arvensis, post-emergence, alone, 560 g/ha, read-out: % visual injury Obs): 100% | % visual injury (Obs) ([16]; alone 280 g/ha): 45% | pest or weed control at 560 g/ha ([16]; Salsola kali, post-emergence, alone, 560 g/ha, read-out: % visual injury Obs): 50% | pest or weed control at 560 g/ha ([5]; Bassia scoparia, post-emergence, KCHSC, alone, 560 g/ha, read-out: % visual injury Obs): 75% | % visual injury (Obs) ([5]; KCHSC): 23% | % visual injury (Obs) [6]: 53% | % visual injury (Obs) [7]: 45% | % visual injury (Obs) ([8]; MATCH): 5% | pest or weed control at 560 g/ha ([8]; Matricaria chamomilla, post-emergence, MATCH, alone, 560 g/ha, read-out: % visual injury Obs): 40% | MATCH % visual injury Obs ([8]; Triclopyr 45 g/ha (Table 39)): 10% | MATCH % visual injury Obs ([8]; Triclopyr 60 g/ha (Table 39)): 10% | % visual injury (Obs) ([17]; alone 280 g/ha): 0% | % visual injury Obs ([17]; alone, 560 g/ha): 0% | % visual injury (Obs) ([18]; alone 280 g/ha): 0% | % visual injury Obs ([18]; alone, 560 g/ha): 0% | pest or weed control at 560 g/ha ([19]; CENCY, alone, 560 g/ha): 100% | pest or weed control at 560 g/ha ([20]; VIOAR, alone, 560 g/ha): 25% | VERHE % visual injury Obs ([21]; Triclopyr 45 g/ha (Table 39)): 10% | VERHE % visual injury Obs ([21]; Triclopyr 60 g/ha (Table 39)): 15% | pest or weed control at 560 g/ha ([21]; Veronica hederifolia, post-emergence, VERHE, alone, 560 g/ha, read-out: % visual injury Obs): 65% | pest or weed control at 560 g/ha ([22]; PAPRH, alone, 560 g/ha): 20% | VERVE % visual injury Obs ([23]; Triclopyr 45 g/ha (Table 39)): 0% | VERVE % visual injury Obs ([23]; Triclopyr 60 g/ha (Table 39)): 0% | pest or weed control at 560 g/ha ([23]; Veronica persica, post-emergence, VERPE, alone, 560 g/ha, read-out: % visual injury Obs): 60% | pest or weed control at 560 g/ha ([24]; Papaver rhoeas, post-emergence, PAPRH-R, alone, 560 g/ha, read-out: % visual injury Obs): 50% | PAPRH-R % visual injury Obs ([24]; Triclopyr 45 g/ha (Table 39)): 10% | PAPRH-R % visual injury Obs ([24]; Triclopyr 60 g/ha (Table 39)): 10% | pest or weed control at 560 g/ha ([25]; CAPBP, alone, 560 g/ha): 75% | pest or weed control at 560 g/ha ([9]; Stellaria media, post-emergence, STEME, alone, 560 g/ha, read-out: % visual injury Obs): 30% | pest or weed control at 560 g/ha ([26]; ANTAR, alone, 560 g/ha): 40% | pest or weed control at 560 g/ha ([27]; Matricaria discoidea, post-emergence, MATMT, alone, 560 g/ha, read-out: % visual injury Obs): 10% | MATMT % visual injury Obs ([27]; Triclopyr 45 g/ha (Table 39)): 20% | MATMT % visual injury Obs ([27]; Triclopyr 60 g/ha (Table 39)): 25% | pest or weed control at 560 g/ha ([28]; MATIN, alone, 560 g/ha): 0% | % visual injury Obs ([29]; alone, 560 g/ha): 0% | % visual injury Obs ([30]; alone, 560 g/ha): 0% | % visual injury (Obs) ([31]; BRSNN, alone 280 g/ha): 50% | pest or weed control at 560 g/ha [32]: 65% | pest or weed control at 560 g/ha [15, 35]: 70%
